The source made the active and inactive calls. No cut-off for these calls is given here.
Columns and labels:
Assay type in all cases: functional, cell-based
[1] = biological target: T1, Taste receptor type 2 member 10 (Homo sapiens) (UniProt Q9NYW0); experiment: Agonist activity at recombinant human N-terminal rat ST3 receptor-fused TAS2R10 expressed in HEK293T cells co-expressing Galpha16gust44 assessed as effect on intracellular calcium level at 100 uM by FLIPR assay
T1 sequence (whole entry): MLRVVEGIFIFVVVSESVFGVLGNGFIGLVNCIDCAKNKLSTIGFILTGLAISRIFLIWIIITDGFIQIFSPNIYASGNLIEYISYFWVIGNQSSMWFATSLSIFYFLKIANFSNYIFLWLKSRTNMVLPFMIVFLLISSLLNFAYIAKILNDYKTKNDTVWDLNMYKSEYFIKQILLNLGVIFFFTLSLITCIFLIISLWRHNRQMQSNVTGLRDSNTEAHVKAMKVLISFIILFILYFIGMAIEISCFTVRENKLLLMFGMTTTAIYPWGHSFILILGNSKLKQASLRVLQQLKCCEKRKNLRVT

[2] = biological target: T2, Taste receptor type 2 member 3 (Homo sapiens) (UniProt Q9NYW6); experiment: Activity at recombinant human N-terminal rat ST3 receptor-fused TAS2R3 expressed in HEK293T cells co-expressing Galpha16gust44 assessed as effect on chloroquine-induced intracellular calcium level at 100 uM by FLIPR assay
T2 sequence (whole entry): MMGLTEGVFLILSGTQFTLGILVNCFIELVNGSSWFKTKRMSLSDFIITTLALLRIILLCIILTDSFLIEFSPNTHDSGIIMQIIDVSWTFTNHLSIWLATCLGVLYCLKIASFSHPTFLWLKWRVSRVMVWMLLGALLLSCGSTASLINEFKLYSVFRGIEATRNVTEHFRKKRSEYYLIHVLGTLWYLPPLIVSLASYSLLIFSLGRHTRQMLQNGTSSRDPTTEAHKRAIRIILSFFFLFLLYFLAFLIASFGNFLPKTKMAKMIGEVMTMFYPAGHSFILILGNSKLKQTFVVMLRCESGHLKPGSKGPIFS

[3] = biological target: T3, Taste receptor type 2 member 8 (Homo sapiens) (UniProt Q9NYW2); experiment: Activity at recombinant human N-terminal rat ST3 receptor-fused TAS2R8 expressed in HEK293T cells co-expressing Galpha16gust44 assessed as effect on chloramphenicol-induced intracellular calcium level at 100 uM by FLIPR assay
T3 sequence (whole entry): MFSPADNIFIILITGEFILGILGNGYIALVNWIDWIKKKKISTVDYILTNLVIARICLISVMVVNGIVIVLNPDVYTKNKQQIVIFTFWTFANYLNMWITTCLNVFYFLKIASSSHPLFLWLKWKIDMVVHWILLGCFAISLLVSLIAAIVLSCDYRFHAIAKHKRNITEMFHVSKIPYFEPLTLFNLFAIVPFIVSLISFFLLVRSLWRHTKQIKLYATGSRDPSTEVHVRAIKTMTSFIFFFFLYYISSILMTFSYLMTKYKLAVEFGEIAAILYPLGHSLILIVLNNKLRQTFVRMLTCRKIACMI

[4] = biological target: T4, Taste receptor type 2 member 14 (Homo sapiens) (UniProt Q9NYV8); experiment: Activity at recombinant human N-terminal rat ST3 receptor-fused TAS2R14 expressed in HEK293T cells co-expressing Galpha16gust44 assessed as effect on aristolochic acids-induced intracellular calcium level at 100 uM by FLIPR assay
T4 sequence (whole entry): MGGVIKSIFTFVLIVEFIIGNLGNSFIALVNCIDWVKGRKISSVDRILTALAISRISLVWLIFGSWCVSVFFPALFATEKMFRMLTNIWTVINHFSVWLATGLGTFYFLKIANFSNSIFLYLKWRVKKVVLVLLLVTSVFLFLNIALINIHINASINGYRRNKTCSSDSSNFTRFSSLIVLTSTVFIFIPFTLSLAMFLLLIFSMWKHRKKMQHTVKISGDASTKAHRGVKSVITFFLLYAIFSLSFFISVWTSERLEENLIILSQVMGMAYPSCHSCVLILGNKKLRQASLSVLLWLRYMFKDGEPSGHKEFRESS

[5] = biological target: T5, Taste receptor type 2 member 16 (Homo sapiens) (UniProt Q9NYV7); experiment: Activity at recombinant human N-terminal rat ST3 receptor-fused TAS2R16 expressed in HEK293T cells co-expressing Galpha16gust44 assessed as effect on D-salicin-induced intracellular calcium level at 100 uM by FLIPR assay
T5 sequence (whole entry): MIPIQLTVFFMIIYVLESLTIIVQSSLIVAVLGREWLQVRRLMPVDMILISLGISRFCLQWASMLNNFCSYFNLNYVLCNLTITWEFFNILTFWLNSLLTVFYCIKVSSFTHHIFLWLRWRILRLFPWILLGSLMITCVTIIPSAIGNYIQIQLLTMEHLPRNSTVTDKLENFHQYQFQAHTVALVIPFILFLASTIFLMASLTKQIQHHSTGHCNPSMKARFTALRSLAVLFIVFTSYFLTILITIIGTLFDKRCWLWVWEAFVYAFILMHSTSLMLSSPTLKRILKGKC

[6] = biological target: T6, Taste receptor type 2 member 39 (Homo sapiens) (UniProt P59534); experiment: Activity at recombinant human N-terminal rat ST3 receptor-fused TAS2R39 expressed in HEK293T cells co-expressing Galpha16gust44 assessed as effect on epigallocatechin gallate-induced intracellular calcium level at 100 uM by FLIPR assay
T6 sequence (whole entry): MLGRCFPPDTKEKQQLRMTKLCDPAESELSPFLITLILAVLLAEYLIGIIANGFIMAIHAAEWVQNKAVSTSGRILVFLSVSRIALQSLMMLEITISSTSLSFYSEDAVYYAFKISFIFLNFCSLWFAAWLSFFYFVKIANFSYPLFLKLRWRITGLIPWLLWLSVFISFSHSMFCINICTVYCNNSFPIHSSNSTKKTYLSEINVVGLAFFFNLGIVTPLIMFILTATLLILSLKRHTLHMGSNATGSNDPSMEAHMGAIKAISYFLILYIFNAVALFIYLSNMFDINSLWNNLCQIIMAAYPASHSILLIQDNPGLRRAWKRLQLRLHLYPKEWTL

[7] = biological target: T7, Taste receptor type 2 member 43 (Homo sapiens) (UniProt P59537); experiment: Antagonist activity at recombinant human N-terminal rat ST3 receptor-fused TAS2R43 expressed in HEK293T cells co-expressing Galpha16gust44 assessed as reduction in aristolochic acids-induced intracellular calcium level at 100 uM by FLIPR assay
T7 sequence (whole entry): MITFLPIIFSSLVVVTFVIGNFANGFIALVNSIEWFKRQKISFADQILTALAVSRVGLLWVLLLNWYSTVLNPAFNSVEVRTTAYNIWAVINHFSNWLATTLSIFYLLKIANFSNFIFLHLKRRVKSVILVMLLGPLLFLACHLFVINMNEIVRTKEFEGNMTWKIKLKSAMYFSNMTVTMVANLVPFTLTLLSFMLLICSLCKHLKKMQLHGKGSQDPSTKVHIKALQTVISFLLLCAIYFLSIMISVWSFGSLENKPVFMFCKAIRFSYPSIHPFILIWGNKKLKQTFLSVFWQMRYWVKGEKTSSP

Structure (SMILES)	Activity [1]	Activity [2]	Activity [3]	Activity [4]	Activity [5]	Activity [6]	inhibition [7]
C/C1=C\C[C@H](O)[C@@H](C)C[C@H]2OC(=O)[C@@H](C)C2CC1 (some centres undefined)	Active	inactive	inactive	inactive	inactive	inactive	100%
C/C1=C\C[C@H](O)/C(C)=C/[C@H]2OC(=O)[C@@H](C)C2CC1 (some centres undefined)	Active	inactive	inactive	inactive	inactive	inactive	Active

From ChEMBL document CHEMBL4421717, “Antagonists and agonists of bitter taste receptors and uses thereof” (2012)
